From ChEMBL document CHEMBL1201862, “PubChem BioAssay data set” (2004)
The source made the active and inactive calls.

Legend:
[1] = MC4R antagonists, dose response, counter-screen for LGR2 antagonist project, cell-based, plate reader, cherry pick (AID 743444); type: functional;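 note: transfected HEK 293 cells stimulated with alpha-MSH peptide; potency of inhibitors of the alpha-MSH evoked signal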
[2] = HepG2 cell cytotoxicity, dose response, cytotoxicity control, plate reader, cherry-pick, antagonist series (AID 743416); type: functional, cell-based
[3] = LGR2 antagonists, dose response, cell-based, HEK293, CRE-luciferase reporter, cherry pick, set 2 (AID 743343); type: functional;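 note: transfected cells were stimulated with diluted bursicon conditioned medium after compound addition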
[4] = Luminescence Cell-Based Dose Confirmation HTS to Identify Activators of 5'UTR Stem-Loop Driven Alpha-Synuclein mRNA Translation in H4 Neuroglioblastoma Cells. [Related pubchem assays: 1829 (Project Summary), 1814 (Primary HTS)]; type: functional
[5] = biological target: T1, Methionyl-tRNA synthetase, putative (Trypanosoma brucei brucei, UniProt Q38C91); type: functional, Trypanosoma brucei brucei strain 927/4 GUTat10.1
T1 sequence (Q38C91 whole entry): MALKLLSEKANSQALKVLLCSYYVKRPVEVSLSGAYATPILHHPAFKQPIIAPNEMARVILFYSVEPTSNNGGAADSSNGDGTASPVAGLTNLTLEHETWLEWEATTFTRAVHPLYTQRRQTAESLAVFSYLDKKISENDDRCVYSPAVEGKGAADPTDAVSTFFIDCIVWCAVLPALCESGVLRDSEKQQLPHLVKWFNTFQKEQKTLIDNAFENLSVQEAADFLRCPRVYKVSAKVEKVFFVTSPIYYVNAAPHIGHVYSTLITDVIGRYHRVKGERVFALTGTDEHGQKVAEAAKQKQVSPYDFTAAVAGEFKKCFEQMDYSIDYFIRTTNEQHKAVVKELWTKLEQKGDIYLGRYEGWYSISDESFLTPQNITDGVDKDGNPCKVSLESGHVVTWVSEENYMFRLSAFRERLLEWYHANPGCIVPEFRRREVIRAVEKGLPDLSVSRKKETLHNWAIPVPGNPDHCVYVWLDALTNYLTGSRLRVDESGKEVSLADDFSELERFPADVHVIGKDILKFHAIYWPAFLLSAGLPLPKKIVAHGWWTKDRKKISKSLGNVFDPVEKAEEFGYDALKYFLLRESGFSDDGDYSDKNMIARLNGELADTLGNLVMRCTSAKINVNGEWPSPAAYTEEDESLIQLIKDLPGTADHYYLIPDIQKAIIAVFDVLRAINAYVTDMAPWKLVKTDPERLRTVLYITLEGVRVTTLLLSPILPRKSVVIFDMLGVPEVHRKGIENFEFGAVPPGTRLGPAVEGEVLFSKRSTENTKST

[6] = test system: H4; assay: Luminescence Cell-Based Dose Response HTS to Identify Activators of 5'UTR Stem-Loop Driven Prion Protein mRNA Translation in H4 Neuroglioblastoma Cells. [Related pubchem assays: 1829 (Project Summary), 1814 (Primary HTS)]; type: functional; conditions: Homo sapiens
[7] = Counterscreen for inhibitors of Trypanosoma brucei methionyl tRNA synthetase (MetRS): Luminescence-based cell-based high throughput dose response assay to identify compounds that are cytotoxic to Jurkat human T lymphocyte cells.; type: functional
[8] = Luminescence Cell-Based Dose Response HTS to Identify Activators of Luciferase Translation or Activity in H4 […] Cells. [Related pubchem assays: 1829 (Project Summary), 1814 (Primary HTS)]; type: functional
[9] = biological target: T1, Methionyl-tRNA synthetase, putative; type: functional, Trypanosoma brucei brucei strain 927/4 GUTat10.1; remark: listed apart in the source
[10] = test system: Vero; assay: host cell cytotoxicity of antiviral hits, dose response, cytotoxicity control for West Nile virus antiviral project, secondary assay (AID 1650); type: functional; conditions: Chlorocebus sabaeus
[11] = inhibitors of intracellular T. cruzi replication, confirmation, NIH3T3 host cells, beta-gal luminescence (AID 2044); type: functional, cell-based;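 note: intracellular parasites grown in NIH/3T3 mouse fibroblasts as host cells; luminescent beta-galactosidase reporter signal from transgenic T. cruzi replicating inside host cells; inhibitors lower the luminescence signal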
[12] = test system: Streptococcus sp. 'group A'; assay: growth inhibition of control SK(-) GAS strain, dose response, counter-screen for streptokinase expression inhibitor project, luminescence, kanamycin, BacTiterGlo, confirmation (AID 1900); type: functional, organism-based
[13] = test system: Streptococcus; assay: Group A Streptococcus viability loss, dose response, counter-screen for streptokinase expression inhibitor project, luminescence, BacTiterGlo (AID 1915); type: functional, organism-based;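 note: potency for reduction of bacterial viability or growth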
[14] = cytotoxicity toward NIH3T3 fibroblasts, dose response, counter-screen, cell-based, ATP luminescence, mouse fibroblasts (AID 2010); type: functional;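 note: cells exposed to compound for about 90 hours before reading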
[15] = biological target: Paired box protein Pax-8 (Homo sapiens, UniProt Q06710); assay: inhibitors of PAX8-driven TPO luciferase reporter, dose response, RMG-I cells, cherry-pick (AID 687027); type: functional, cell-based;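 note: luciferase reporter driven by Pax8 target thyroperoxidase promoter measured by SteadyGlo luminescence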
[16] = biological target: T2, Streptokinase A (Streptococcus pyogenes serotype M1, UniProt P10520); assay: S. pyogenes streptokinase expression inhibitors, potency, dose response, plasminogen activation absorbance, OD405 (AID 1914); type: functional, Streptococcus pyogenes M1 GAS;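 note: secreted streptokinase activity via plasminogen activation per viability signal from cell pellet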
T2 sequence (P10520 whole entry): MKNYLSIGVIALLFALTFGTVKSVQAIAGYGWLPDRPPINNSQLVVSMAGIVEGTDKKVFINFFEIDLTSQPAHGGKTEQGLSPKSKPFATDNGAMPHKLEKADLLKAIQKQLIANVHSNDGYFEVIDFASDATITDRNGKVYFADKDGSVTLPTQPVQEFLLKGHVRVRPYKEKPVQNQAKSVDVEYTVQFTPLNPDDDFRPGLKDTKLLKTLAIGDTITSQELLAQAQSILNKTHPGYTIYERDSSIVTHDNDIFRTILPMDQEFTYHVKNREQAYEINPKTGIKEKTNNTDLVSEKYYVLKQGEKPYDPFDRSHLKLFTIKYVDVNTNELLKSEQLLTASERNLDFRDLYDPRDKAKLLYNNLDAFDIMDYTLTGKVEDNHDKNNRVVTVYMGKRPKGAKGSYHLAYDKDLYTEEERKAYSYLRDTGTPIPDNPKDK

[17] = Luminescence Cell-Based Dose Retest to Confirm Inhibitors of Cancer Stem Cells. [Related pubchem assays (depositor defined):AID2717, AID2721]; type: functional; conditions: Homo sapiens
[18] = biological target: T3, Heat shock factor protein 1 (Mus musculus, UniProt P38532); assay: HSF1 potentiators in luciferase reporter cells, confirmation, cell-based, NIH3T3, luminescence, dose retest (AID 435004); type: functional;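 note: stress induced by proteasome inhibitor MG132 added 30 min after compound; luciferase reporter driven by HSF1 response element in NIH3T3 cells; actives raise luminescence as potentiators of the MG132 stress response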
T3 sequence (P38532 whole entry): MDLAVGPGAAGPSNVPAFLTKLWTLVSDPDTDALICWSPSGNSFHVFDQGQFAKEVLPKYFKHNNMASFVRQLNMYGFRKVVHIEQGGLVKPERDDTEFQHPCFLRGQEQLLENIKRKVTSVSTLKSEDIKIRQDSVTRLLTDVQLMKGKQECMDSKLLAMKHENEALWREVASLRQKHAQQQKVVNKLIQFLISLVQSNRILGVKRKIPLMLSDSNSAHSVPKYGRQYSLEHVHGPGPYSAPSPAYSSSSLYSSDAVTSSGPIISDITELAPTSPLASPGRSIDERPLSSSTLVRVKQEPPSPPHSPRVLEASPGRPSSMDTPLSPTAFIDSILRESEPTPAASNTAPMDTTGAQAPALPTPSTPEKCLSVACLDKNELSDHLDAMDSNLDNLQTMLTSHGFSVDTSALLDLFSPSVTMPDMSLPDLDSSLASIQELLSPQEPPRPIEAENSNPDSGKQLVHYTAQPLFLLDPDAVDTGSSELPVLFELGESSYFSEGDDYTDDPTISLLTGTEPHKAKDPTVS

[19] = biological target: T4, Leucine aminopeptidase (Plasmodium falciparum 3D7, UniProt Q8IL11); assay: P. falciparum M17LAP inhibitors, primary screen, biochemical, fluorogenic H-Leu-NHMec substrate, 1536-well (AID 1619); type: functional
T4 sequence (Q8IL11 whole entry): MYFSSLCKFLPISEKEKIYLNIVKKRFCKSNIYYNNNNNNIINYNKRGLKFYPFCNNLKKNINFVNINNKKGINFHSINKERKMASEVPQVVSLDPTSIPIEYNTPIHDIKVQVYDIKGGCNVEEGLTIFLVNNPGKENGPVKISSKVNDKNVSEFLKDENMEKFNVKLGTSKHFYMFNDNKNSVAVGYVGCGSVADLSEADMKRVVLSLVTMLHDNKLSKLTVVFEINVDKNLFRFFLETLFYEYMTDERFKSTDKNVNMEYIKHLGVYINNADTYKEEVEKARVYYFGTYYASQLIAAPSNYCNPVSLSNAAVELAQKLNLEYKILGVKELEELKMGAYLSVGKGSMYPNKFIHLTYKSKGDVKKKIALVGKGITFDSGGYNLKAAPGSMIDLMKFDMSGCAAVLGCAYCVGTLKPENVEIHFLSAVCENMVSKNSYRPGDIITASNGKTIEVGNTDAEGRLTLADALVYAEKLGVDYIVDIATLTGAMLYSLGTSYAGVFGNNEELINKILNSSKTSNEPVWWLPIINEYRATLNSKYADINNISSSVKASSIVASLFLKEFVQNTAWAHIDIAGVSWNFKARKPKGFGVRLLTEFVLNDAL

[20] = biological target: T5, Estrogen receptor (Homo sapiens, UniProt P03372);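 note: potency for inhibiting coactivator peptide recruitment to the receptor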
T5 sequence (P03372 whole entry): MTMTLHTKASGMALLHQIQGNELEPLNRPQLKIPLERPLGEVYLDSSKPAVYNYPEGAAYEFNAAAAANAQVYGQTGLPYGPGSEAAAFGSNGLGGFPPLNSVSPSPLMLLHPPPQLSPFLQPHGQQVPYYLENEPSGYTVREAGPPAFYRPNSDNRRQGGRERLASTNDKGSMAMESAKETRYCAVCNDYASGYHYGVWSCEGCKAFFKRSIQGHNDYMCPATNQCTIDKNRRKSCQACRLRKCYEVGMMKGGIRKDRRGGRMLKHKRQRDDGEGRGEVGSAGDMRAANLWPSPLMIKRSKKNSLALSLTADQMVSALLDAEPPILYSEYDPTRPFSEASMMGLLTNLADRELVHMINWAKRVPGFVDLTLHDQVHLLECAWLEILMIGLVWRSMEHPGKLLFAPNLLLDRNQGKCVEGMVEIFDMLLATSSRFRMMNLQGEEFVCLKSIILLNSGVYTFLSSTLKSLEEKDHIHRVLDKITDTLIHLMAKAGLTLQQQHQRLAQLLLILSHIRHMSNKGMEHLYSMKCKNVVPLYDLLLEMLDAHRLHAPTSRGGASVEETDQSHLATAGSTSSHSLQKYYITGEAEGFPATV

[21] = P. falciparum ATP4 D1247Y mutant growth inhibitors, dose response, NITD609-resistant line, SYBR Green, dry powder (AID 1159571); type: functional, cell-based;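 note: parasites synchronized at ring stage by sorbitol before testing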
[22] = P. falciparum Dd2 growth inhibitors, dose response, SYBR Green, cherry-picked samples (AID 1159567); type: functional, cell-based
[23] = P. falciparum 3D7-ScDHODH growth inhibitors, dose response, SYBR Green, dry powder samples (AID 1159570); type: functional, cell-based;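 note: parasite growth measured after 72 hours of compound exposure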
[24] = P. falciparum Dd2 growth inhibitors, dose response, SYBR Green, dry powder samples (AID 1159566); type: functional, cell-based;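 note: potency for growth inhibition with lower SYBR green DNA signal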

Sequence of Paired box protein Pax-8 (Q06710 whole entry): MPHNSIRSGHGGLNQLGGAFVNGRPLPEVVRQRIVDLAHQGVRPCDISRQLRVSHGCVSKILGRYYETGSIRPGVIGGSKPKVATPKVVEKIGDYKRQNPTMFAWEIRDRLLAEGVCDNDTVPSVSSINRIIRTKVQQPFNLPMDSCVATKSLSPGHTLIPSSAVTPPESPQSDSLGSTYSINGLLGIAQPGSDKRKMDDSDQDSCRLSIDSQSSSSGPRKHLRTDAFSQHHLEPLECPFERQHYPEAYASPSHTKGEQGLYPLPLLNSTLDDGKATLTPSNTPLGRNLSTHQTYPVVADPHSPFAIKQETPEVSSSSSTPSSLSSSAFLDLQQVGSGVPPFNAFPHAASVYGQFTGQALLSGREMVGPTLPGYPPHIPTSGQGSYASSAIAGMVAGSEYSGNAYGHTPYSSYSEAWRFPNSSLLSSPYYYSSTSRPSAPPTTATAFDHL

## COc1ccc(-n2nnnc2-c2nc3ccccc3s2)cc1
[1]
  AC50: 7.96 µM (active)
[2]
  AC50: > 52 µM (inactive)
[3]
  AC50: 6.52 µM (active)

## Cc1ccccc1Oc1cc(NC(=O)Cn2cnc([N+](=O)[O-])c2)cc([N+](=O)[O-])c1
[4]
  EC50: > 120 µM (not active)
[5]
  IC50: 52.5 µM (inactive)
[6]
  EC50: > 120 µM (not active)
[7]
  IC50: 37.3 µM (inactive)
[8]
  EC50: > 120 µM (not active)
[9]
  IC50: 51.3 µM (inactive)

## O=C(Nc1cccc(Cl)c1)Nc1csc([N+](=O)[O-])c1
[10]
  CC50: > 100 µM (active)
[11]
  EC50: 3.47 µM (active)
[12]
  EC50: 9.68 µM (active)
[13]
  EC50: 15.3 µM (active)
[14]
  EC50: > 60 µM (not active)
[15]
  AC50: 11.6 µM (active)
[16]
  EC50: > 150 µM (not active)
[17]
  AC50: 4.34 µM (active)
[18]
  EC50: 31.6 µM (active)

## CC(=O)NS(=O)(=O)c1ccc(NC(=O)c2cc(-c3ccc(C)cc3)nc3ccccc23)cc1
[19]
  IC50: 13.7 µM (active)

## CCOC(=O)c1c(NC(=O)CSc2nnc(C)c(=O)[nH]2)sc2c1CCC2
[19]
  IC50: 7.77 µM (active)

## O=C(NCC1CCCO1)C(=Cc1cccc([N+](=O)[O-])c1)C(=O)NCC1CCCO1 (centres undefined)
[10]
  CC50: 23.6 µM (active)
[15]
  AC50: 3.43 µM (active)

## O=C(Nc1cccc(-c2cnc3ccccc3n2)c1)c1cccc(NC(=O)c2ccco2)c1
[20]
  IC50: 13.1 µM (active)

## CCOC(=O)c1c(NC(=O)CCS(=O)(=O)c2ccccc2)sc2c1CCN(C(C)C)C2
[10]
  CC50: 69.1 µM (active)

## CC1(C)CC(=O)c2cnc(NCC3CCCO3)nc2C1 (centres undefined)
[20]
  IC50: > 50 µM (not active)

## COc1ccc(-c2ccccc2[C@H]2[C@@H](C#N)N(C(=O)C3CCCCC3)[C@H]2CO)cc1
[21]
  AC50: 5.94 µM (active)
[22]
  AC50: 1.03 µM (active)
[23]
  AC50: 1.38 µM (active)
[24]
  AC50: 1.52 µM (active)
